Measurements reported in patent US5457182A (Merck & Co., Inc., priority 1994, dated 1995).
Entries after “also recorded” stand apart in the source; their conditions may differ.

Columns and labels:
[1] = biological target: T1, FKBP12.6 (Bos taurus, UniProt P68107); assay: Inhibition of PPIase activity of FKBP12.6; assay type: biochemical, bovine (calf brain)
T1 construct: The FKBP12.6 protein has been isolated and purified from calf brain; from tissue; host or cells: calf brain cytosol
Experimental: (§1) PPIase assays were performed as described (Fischer, G., et al., Nature, 337,476-478 (1989)) with the following changes: the peptide substrate used was N-succinyl-Ala-Leu-Pro-Phe-p-nitroanilide (BACHEM, California) at a final concentration of 72 μM and chymotrypsin (Sigma) was present in the assay at a concentration of 6 μM. The total reaction volume was 1.5 ml. The release of p-nitroanilide by chymotrypsin was measured by following the increase in absorbance at 405 nm on a Beckman DU68 spectrophotometer. After an initial rapid rise in absorbance due to hydrolysis of the trans peptide, the slow secondary increase in absorbance which reflects the cis-to-trans conversion of the peptide by the PPIase was measured at 3 sec intervals out to 1.5 min. The data were fitted to a simple first-order rate equation and the first-order rate constant, k (s^-1), calculated.

[2] = literature; cited from earlier work
[3] = biological target: FKBP12 (Homo sapiens, UniProt P62942); assay: [3H]dihydroFK-506 direct binding, FKBP12; details: unit inferred
Experimental: (§2) The basic LH-20 binding assay was performed as described by Handschumacher,R., et al., Science, 226, 544-547 (1984) with the modifications noted in Siekierka, J., et al., Nature, 341, 755-757 (1989).

[4] = tested on: JURKAT cells; assay: IL-2 secretion in JURKAT cells stimulated with PMA and ionomycin; assay type: cell-based, human
[5] = biological target: T1, FKBP12.6; assay: [3H]dihydroFK-506 direct binding (LH-20 assay), Scatchard, FKBP12.6; design: species or system bovine (calf brain); details: direct binding data, Scatchard format
Experimental: as §2

[6] = FK-506 specific binding activity of FKBP12.6 preparations (LH-20 assay)
Experimental: However, FKBP12.6 is separated completely from authentic FKBP12 in Step II by chromatography on the CM-450M column. FKBP12.6 remains bound to the CM column while FKBP12 flows through during loading and washing. FKBP12.6 elutes from the column between 100 and 200 mM NaCl and Westerns of the gradient fractions using the anti-C-terminal peptide antibody confirm that there is no trace of FKBP12 present in the FKBP12.6 fractions. Because of the presence of FKBP12 in the S200, the recovery of FKBP12.6 may only be calculated from the CM-450M step forward using the standard LH-20 binding assay (Handschumacher, R., et al., Science. 226, 544-547 (1984)).
Starting with approximately 60 grams of protein in the crude cytosolic brain extract, a typical yield after purification is about 50 μg of homogeneous FKBP12.6 (see Table I). […] FKBP12.6 was eluted from the resin with 4M guanidine-HCl and renatured by dialysis. […] This calculates to a 3,271-fold purification from the CM-450M step. Because the CM-450M step removes 94% of the protein from the crude extract, the overall s purification from the S200 is actually much greater. In calf brain cytosol then, FKBP12.6 is clearly much less abundant than FKBP12 is in calf thymus which was purified from that tissue 337-fold to homogeneity with almost the identical recovery (Siekierka, J., et al., Nature, 341, 755-757 (1989)). […] A second explanation for the lower than expected binding is that the LH-20 assay used to estimate binding is not an equilibrium binding assay and ligand off-rates will result in lower calculated specific binding activities. A third explanation is that all of the FKBP12.6 may not be […] properly and the […] protein may not bind effectively.
as §2

[7] = biological target: calcineurin; assay: Calcineurin phosphatase assay; assay type: biochemical, bovine
Experimental: For a side-by-side comparison, FKBP12 was also tested for its ability to inhibit calcineurin in the presence of drug.
The calcineurin phosphatase assay is a modified version of previous assays (Liu, J., et al., Cell, 66, 807-815 (1991); Manalan, A., et al., Proc. Natl. Acad. Sci. U.S.A., 80, 4291-4295 (1983)). Reaction mixtures ([…] contained: 40 mM Tris (pH 8), 100 mM NaCl, 6 mM Mg(OAc)2, 0.1 mM CaCl2, 0.1 mg/ml BSA, 0.5 mM dithiothreitol, 190 nM bovine brain calmodulin (Sigma), 3 nM bovine brain calcineurin (Sigma), and 40 μM [^33 P]RII peptide (Peptides International) (600 cpm/pmole). Reaction mixtures were pre-incubated for 30 min at 30° C. prior to addition of the labeled peptide. The reaction was initiated by addition of the peptide and the dephosphorylation reaction was allowed to proceed for 10 min at 30° C. The reaction was terminated by the addition of 0.5 ml of 5% trichloroacetic acid containing 100 mM sodium phosphate (stop buffer) and applied to a 0.5 ml Dowex 50W-X8, H^+ column. Free [^33 P]phosphate was eluted from the column with 0.5 ml of stop buffer followed by 0.5 ml of water.

[8] = FK-506 specific binding activity of FKBP12.6 preparations (LH-20 assay); details: Step II. CM-650M
[9] = Peptidyl-prolyl cis-trans isomerase (PPIase) activity; assay type: biochemical
Experimental: as §1

[10] = Heat stability; assay type: physicochemical
[11] = tested on: calcineurin; assay: FKBP.FK-506.CaN complex-formation assay (size-exclusion column, Western analysis); assay type: binding, bovine; details: Ca^2+
Experimental: In the modified assay, samples were assayed by Western analysis using the anti-C-terminal peptide antibody in order to identify FKBP12 and FKBP12.6 in various chromatographic fractions.
In the first experiment, FKBP12 and FKBP12.6 were partially purified by preparative HPLC gel filtration chromatography on a Bio-Sil TSK-125 column. These partially purified FKBPs (containing both FKBP12 and FKBP12.6) are devoid of CaN which separates completely from them on this column. FKBP12 and FKBP12.6 co-elute at fractions 26 and 27 on the analytical sizing column (G2000SW) used in this experiment. […] Because this crude FKBP material also contains FKBP12.6, it can also be observed migrating slightly above FKBP12 in FIG. 4A.
To more carefully examine the requirements for FKBP12.6 complex formation with CaN, experiments were conducted using purified FKBP12.6.
The incubation buffer contained 20 mM Tris (pH 7.5), 100 mM NaCl, 6 mM MgCl2, 0.1 mM CaCl2, 0.1 mg/ml BSA, and 0.5 mM dithiothreitol. The incubation reaction was chromatographed on a Bio-Sil SEC400 HPLC column (Bio-Rad) at a flow rate of 1 ml/min and 1 min fractions were collected. The chromatography buffer was the same as the incubation buffer except that BSA was omitted. 30 μl of fractions 19-29 were subjected to electrophoresis on a 16% Novex Tris-Glycine gel and Western analysis was performed as described above.

[12] = partially purified FKBP12.6 (Step VI)

T1 sequence (P68107 whole entry): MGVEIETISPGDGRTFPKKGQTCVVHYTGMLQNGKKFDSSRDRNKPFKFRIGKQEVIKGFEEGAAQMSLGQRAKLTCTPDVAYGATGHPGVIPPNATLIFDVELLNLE
FKBP12, sequence (P62942 whole entry, species assumed): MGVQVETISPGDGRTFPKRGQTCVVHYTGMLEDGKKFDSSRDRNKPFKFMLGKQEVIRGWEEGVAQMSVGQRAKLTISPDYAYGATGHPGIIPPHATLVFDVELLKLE

CO[C@H]1C[C@@H]2CC[C@@H](C)[C@@](O)(O2)C(=O)C(=O)N2CCCC[C@H]2C(=O)O[C@H]([C@H](C)C[C@@H]2CC[C@@H](O)[C@H](OC)C2)CC(=O)[C@H](C)/C=C(\C)[C@@H](O)[C@@H](OC)C(=O)[C@H](C)C[C@H](C)/C=C/C=C/C=C/1C [rapamycin]
inhibition of PPIase activity of FKBP12.6 [1, 12]: potent inhibitors
inhibition of PPIase activity relative to FK-506 [1, 12]: somewhat better inhibitor than FK-506

C=CCC1C=C(C)CC(C)CC(OC)C2OC(O)(C(=O)C(=O)N3CCCCC3C(=O)OC(C(C)=CC3CCC(O)C(OC)C3)C(C)C(O)CC1=O)C(C)CC2OC (stereo not drawn) [FK-506, 17-allyl-1,14-dihydroxy-12-[2'-(4"-hydroxy-3"-methoxycyclohexyl)-1'-methylvinyl]-23,25-dimethoxy-13,19,21,27-tetramethyl-11,28-dioxa-4-azatricyclo-[22.3.1.0^4,9]octacos-18-ene-2,3,10,16-tetraone]
specific inhibition of FKBP12.6 PPIase activity ([1]; Example 4): specifically inhibited by FK-506
inhibition of PPIase activity of FKBP12.6 [1, 12]: potent inhibitors
neurological toxicities [2]: neurological toxicities, which include drowsiness, lethargy, tremors, and aggressiveness

[3H]CC([3H])C[C@@H]1/C=C(\C)C[C@H](C)C[C@H](OC)[C@H]2O[C@@](O)(C(=O)C(=O)N3CCCC[C@H]3C(=O)O[C@H](/C(C)=C/[C@@H]3CC[C@@H](O)[C@H](OC)C3)[C@H](C)[C@@H](O)CC1=O)[C@H](C)C[C@@H]2OC (stereo partly drawn) [[^3 H]dihydroFK-506]
Kd [3]: 400 pM
inhibition of IL-2 secretion ([4]; JURKAT cells, PMA and ionomycin): potent inhibitor
potency relative to parent compound (times less potent) ([4]; inhibition of IL-2 secretion, parent FK-506): 5 times
Kd [5]: 550 pM

FKBP12.6: homogeneous cytosolic binding protein for FK-506, 10-12 kilodaltons, from calf brain; partial sequence SEQ ID NO: 1
specific binding activity ([6]; FKBP12.6 characteristic, summary): about 4.8 micrograms FK-506 per mg FKBP12.6 protein
FK-506 Binding (ng FK-506 bound/mg protein) ([6]; Step III. TSK-125 HPLC): 4.23 ng FK-506 bound/mg protein
FK-506 Binding (ng FK-506 bound/mg protein) ([6]; Step IV. CM-3SW HPLC): 13.3 ng FK-506 bound/mg protein
FK-506 Binding (ng FK-506 bound/mg protein) ([6]; Step V. Phenyl-5PW HPLC): 52.85 ng FK-506 bound/mg protein
FK-506 Binding (ng FK-506 bound/mg protein) ([6]; Step VI. G2000SW HPLC, about 25% pure): 1278.3 ng FK-506 bound/mg protein
FK-506 Binding (ng FK-506 bound/mg protein) ([6]; Step VII. FK-506 Affinity): 4874.0 ng FK-506 bound/mg protein
theoretical specific binding activity ([6]; assuming mass of 12.6 kDa and 1 mole FK-506 per mole protein): 64 mg of [^3 H]dihydroFK-506 per
specific binding activity ([6]; purified FKBP12.6): 4.8 μg of [^3 H]dihydroFK-506 per mg of protein
retention of binding to FK-506 ([6]; renatured material): retains binding to FK-506
IC50 ([7]; in presence of FK-506, CaN, CaM, Ca^2+, Mg^2+, read-out: IC50 for inhibition of CaN): 16000 pM
ability to block CaN phosphatase activity relative to FKBP12 ([7]; in presence of FK-506, FIG. 5): almost equipotent to FKBP12
FK-506 Binding (ng FK-506 bound/mg protein) [8]: 1.49 ng FK-506 bound/mg protein
PPIase activity compared with FKBP12 ([9]; 25% purity of FKBP12.6 factored in): virtually equivalent to that of FKBP12
PPIase activity ([9]; Example 4): low, but significant PPIase activity
PPIase activity ([9]; material from step VI): did have PPIase activity
PPIase activity ([9]; renatured material (Step VII)): did not have PPIase activity
stability to heating ([10]; 56° C. for 30 minutes): not stable upon heating; also recorded: unstable to heating
effect of heat-treatment step ([10]; cytosolic extract from calf brain): complete loss of FKBP12.6
complex formation with CaN ([11]; partially purified FKBPs, CaM, Mg^2+ and FK-506): Most of the FKBP12.6 is shifted to a high molecular weight complex
complex formation with CaN ([11]; purified FKBP12.6, CaM, Mg^2+ and FK-506): all of the immunoreactive FKBP12.6 is shifted to fractions (20-22)
complex formation with CaN ([11]; purified FKBP12.6, CaM, Mg^2+, without FK-506): continues to elute at fractions 26 and 27
